Laboratory results as given in ChEMBL document CHEMBL1129270, “Aza-peptide analogs as potent human immunodeficiency virus type-1 protease inhibitors with oral bioavailability” (J Med Chem, 1996).

Columns and labels:
Mus musculus (mouse) = experiment: Plasma Concentration after 60 min of oral administration to mice
[1] = molecular target: Human immunodeficiency virus type 1 protease (Human immunodeficiency virus 1) (UniProt Q72874); experiment: In vivo antiviral activity (IC50) against HIV-1 protease.; type: organism-based
[2] = molecular target: Human immunodeficiency virus type 1 protease (Human immunodeficiency virus 1) (UniProt Q72874); experiment: In vivo for antiviral activity (ED90) against HIV-1 protease.; type: organism-based
[3] = Plasma Concentration after 30 min of oral administration to mice; type: ADME, organism-based; details: mouse
[4] = Plasma Concentration after 90 min of oral administration to mice; type: ADME, organism-based; details: mouse
[5] = Plasma Concentration after 120 min of oral administration to mice; type: ADME, organism-based; details: mouse
[6] = Compound was tested in vivo for antiviral activity (C120/ED50) against HIV Protease.; type: functional

| SMILES | concentration at 1 h (Mus musculus (mouse)) | ED50 [1] | ED90 [2] | concentration at 0.5 h [3] | concentration at 1.5 h [4] | concentration at 2 h [5] | C120/ED50 [6] |
| --- | --- | --- | --- | --- | --- | --- | --- |
| COCCOC(=O)NC(C(=O)N[C@@H](Cc1ccccc1)[C@H](O)CN(CC1CCCCC1)NC(=O)C(NC(=O)OCCOC)C(C)C)C(C)C (some centres undefined) | 1100 nM | 79 nM | 300 nM | 2700 nM | < 500 nM | < 500 nM | – |
| COC(=O)N[C@H](C(=O)N[C@@H](Cc1ccccc1)C(O)CN(Cc1ccc(F)cc1)NC(=O)[C@@H](NC(=O)OC)C(C)C)C(C)C (some centres undefined) | – | 49 nM | 1000 nM | – | – | – | – |
| COC(=O)N[C@H](C(=O)N[C@@H](Cc1ccccc1)[C@H](O)CN(CC1CCCCC1)NC(=O)[C@@H](NC(C)=O)C(C)C)C(C)C | – | 300 nM | 1000 nM | – | – | – | – |
| COC(=O)NC(C(=O)NN(Cc1ccc(OC)cc1)C[C@H](O)[C@H](Cc1ccccc1)NC(=O)[C@H](CC(N)=O)NC(=O)c1ccc2ccccc2n1)C(C)C (some centres undefined) | – | 118 nM | 1000 nM | – | – | – | – |
| COC(=O)NC(C(=O)NN(CC1CCCCC1)C[C@H](O)[C@H](Cc1ccccc1)NC(=O)[C@H](CC(N)=O)NC(=O)c1ccc2ccccc2n1)C(C)C (some centres undefined) | – | 18 nM | 100 nM | – | – | – | – |
| CCOC(=O)NC(C(=O)NN(CC1CCCCC1)C[C@H](O)[C@H](Cc1ccccc1)NC(=O)[C@H](CC(N)=O)NC(=O)c1ccc2ccccc2n1)C(C)C (some centres undefined) | – | 9.4 nM | 30 nM | – | – | – | – |
| CCOC(=O)NC(C(=O)N[C@@H](Cc1ccccc1)[C@H](O)CN(CC1CCCCC1)NC(=O)C(NC(=O)OCC)C(C)C)C(C)C (some centres undefined) | 6700 nM | 55 nM | 1000 nM | 6700 nM | 7800 nM | 8700 nM | 158 |
| COC(=O)N[C@H](C(=O)N[C@@H](Cc1ccccc1)C(O)CN(Cc1ccc(O)cc1)NC(=O)[C@@H](NC(=O)OC)C(C)C)C(C)C (some centres undefined) | – | 150 nM | 1000 nM | – | – | – | – |
| CC(C)(C)NC(=O)[C@@H]1C[C@@H]2CCCC[C@@H]2CN1C[C@@H](O)[C@H](Cc1ccccc1)NC(=O)[C@H](CC(N)=O)NC(=O)c1ccc2ccccc2n1 | – | 4.5 nM | 10 nM | – | – | – | – |
| CCOC(=O)NC(C(=O)N[C@@H](Cc1ccccc1)[C@H](O)CN(CC1CCCCC1)NC(=O)C(NC(=O)OCCOC)C(C)C)C(C)C (some centres undefined) | 2200 nM | 15 nM | 100 nM | 1000 nM | 1000 nM | 1500 nM | 100 |
| COC(=O)NC(C(=O)NN(CC(C)C)C[C@H](O)[C@H](Cc1ccccc1)NC(=O)[C@H](CC(N)=O)NC(=O)c1ccc2ccccc2n1)C(C)C (some centres undefined) | – | 63 nM | 300 nM | – | – | – | – |
| COC(=O)N[C@H](C(=O)N[C@@H](Cc1ccccc1)C(O)CN(Cc1ccc(OC)c(OC)c1OC)NC(=O)[C@@H](NC(=O)OC)C(C)C)C(C)C (some centres undefined) | – | 28 nM | 100 nM | – | – | – | – |
| CCOC(=O)NC(C(=O)N[C@@H](Cc1ccccc1)[C@H](O)CN(CC1CCCCC1)NC(=O)C(NC(=O)OC)C(C)C)C(C)C (some centres undefined) | 400 nM | 72 nM | 1000 nM | 3200 nM | 1200 nM | 1400 nM | 19 |
| COC(=O)N[C@H](C(=O)N[C@@H](Cc1ccccc1)C(O)CN(CCC(C)C)NC(=O)[C@@H](NC(=O)OC)C(C)C)C(C)C (some centres undefined) | 600 nM | 2.7 nM | 30 nM | < 200 nM | 400 nM | 300 nM | 111 |
| COC(=O)N[C@H](C(=O)N[C@@H](Cc1ccccc1)C(O)CN(Cc1cccs1)NC(=O)[C@@H](NC(=O)OC)C(C)C)C(C)C (some centres undefined) | – | 17 nM | 100 nM | – | – | – | – |
| COC(=O)N[C@H](C(=O)N[C@@H](Cc1ccccc1)C(O)CN(CC(C)C)NC(=O)[C@@H](NC(=O)OC)C(C)C)C(C)C (some centres undefined) | – | 23 nM | 1000 nM | – | – | – | – |
| CC(C)C(NC(=O)OCc1ccccc1)C(=O)NN(CC1CCCCC1)C[C@H](O)[C@H](Cc1ccccc1)NC(=O)[C@H](CC(N)=O)NC(=O)c1ccc2ccccc2n1 (some centres undefined) | 200 nM | 9.8 nM | 30 nM | 300 nM | 800 nM | 1100 nM | 73 |
| CCOC(=O)NC(C(=O)NN(CC1CCCCC1)C[C@@H](O)[C@H](Cc1ccccc1)NC(=O)C(NC(=O)OC)C(C)C)C(C)C (some centres undefined) | 2200 nM | 29 nM | 100 nM | 3800 nM | 5800 nM | 6000 nM | 207 |
| COC(=O)N[C@H](C(=O)N[C@@H](Cc1ccccc1)C(O)CN(Cc1ccc(OC)cc1)NC(=O)[C@@H](NC(=O)OC)C(C)C)C(C)C (some centres undefined) | – | 9 nM | 30 nM | < 200 nM | < 200 nM | < 200 nM | – |
| CCOC(=O)NC(C(=O)NN(CC1CCCCC1)C[C@@H](O)[C@H](Cc1ccccc1)NC(=O)C(NC(=O)OCCOC)C(C)C)C(C)C (some centres undefined) | < 200 nM | 24 nM | 100 nM | < 200 nM | < 200 nM | < 200 nM | – |
| COC(=O)N[C@H](C(=O)N[C@@H](Cc1ccccc1)C(O)CN(Cc1ccc(C(F)(F)F)cc1)NC(=O)[C@@H](NC(=O)OC)C(C)C)C(C)C (some centres undefined) | – | 17 nM | 100 nM | – | – | – | – |
| C=CCOC(=O)NC(C(=O)N[C@@H](Cc1ccccc1)[C@H](O)CN(CC1CCCCC1)NC(=O)C(NC(=O)OCC=C)C(C)C)C(C)C (some centres undefined) | 1200 nM | 83 nM | 1000 nM | 800 nM | 900 nM | 1000 nM | 12 |
| COc1ccc(CN(C[C@H](O)[C@H](Cc2ccccc2)NC(=O)[C@H](CC(N)=O)NC(=O)c2ccc3ccccc3n2)NC(=O)C(NC(=O)OCc2ccccc2)C(C)C)cc1 (some centres undefined) | – | 15 nM | 30 nM | – | – | – | – |
| COC(=O)N[C@H](C(=O)N[C@@H](Cc1ccccc1)C(O)CN(Cc1ccc(C#N)cc1)NC(=O)[C@@H](NC(=O)OC)C(C)C)C(C)C (some centres undefined) | – | 68 nM | 1000 nM | – | – | – | – |
| COC(=O)N[C@H](C(=O)N[C@@H](Cc1ccccc1)C(O)CN(Cc1ccc(C)cc1)NC(=O)[C@@H](NC(=O)OC)C(C)C)C(C)C (some centres undefined) | < 200 nM | 6.2 nM | 30 nM | < 200 nM | < 200 nM | < 200 nM | – |
| COCCOCCOC(=O)NC(C(=O)N[C@@H](Cc1ccccc1)[C@H](O)CN(CC1CCCCC1)NC(=O)C(NC(=O)OCCOCCOC)C(C)C)C(C)C (some centres undefined) | – | 41 nM | 10000 nM | – | – | – | – |
| CC(C)CN(C[C@H](O)[C@H](Cc1ccccc1)NC(=O)[C@H](CC(N)=O)NC(=O)c1ccc2ccccc2n1)NC(=O)C(NC(=O)OCc1ccccc1)C(C)C (some centres undefined) | – | 12 nM | 30 nM | – | – | – | – |
| COCCOC(=O)NC(C(=O)NN(CC1CCCCC1)C[C@@H](O)[C@H](Cc1ccccc1)NC(=O)C(NC(=O)OC)C(C)C)C(C)C (some centres undefined) | 2800 nM | 28 nM | 100 nM | 1000 nM | 3000 nM | 3100 nM | 111 |
| COC(=O)N[C@H](C(=O)N[C@@H](Cc1ccccc1)C(O)CN(CC1CCCCC1)NC(=O)[C@@H](NC(=O)OC)C(C)C)C(C)C (some centres undefined) | – | 18 nM | 100 nM | – | – | – | – |
| COCCOC(=O)NC(C(=O)NC(Cc1ccccc1)C(O)CN(CC1CCCCC1)NC(=O)C(NC(=O)OC)C(C)C)C(C)C (centres undefined) | < 500 nM | 14 nM | 100 nM | < 500 nM | < 500 nM | < 500 nM | – |
